Results: patent publication US9611275B2 (priority 2012, dated 2017)

Assay: Assay for determination of apparent permeability (Papp), bi-directional transport
Details: pig, LLC-PK1

Row | SMILES | Papp at 3 h, 1 μM
1 | CN(C)C1=N[C@@H]2[C@@H](O)[C@H](O)[C@@H]([C@@H](OCC3CCCCC3)C(F)(F)F)O[C@@H]2S1 [Example 35, (3aR,5S,6S,7R,7aR)-5-((R)-1-(cyclohexylmethoxy)-2,2,2-trifluoroethyl)-2-(dimethylamino)-5,6,7,7a-tetrahydro-3aH-pyrano[3,2-d]thiazole-6,7-diol] | 33.6 ×10⁻⁶ cm/s
2 | CN(C)C1=N[C@@H]2[C@@H](O)[C@H](O)[C@@H]([C@@H](OCCCF)C(F)(F)F)O[C@@H]2S1 [Example 29, (3aR,5S,6S,7R,7aR)-2-(dimethylamino)-5-((R)-2,2,2-trifluoro-1-(3-fluoropropoxy)ethyl)-5,6,7,7a-tetrahydro-3aH-pyrano[3,2-d]thiazole-6,7-diol] | 20.9 ×10⁻⁶ cm/s
3 | CCCCCO[C@H]([C@H]1O[C@@H]2SC(N(C)C)=N[C@@H]2[C@@H](O)[C@@H]1O)C(F)(F)F [Example 27, (3aR,5S,6S,7R,7aR)-2-(dimethylamino)-5-((R)-2,2,2-trifluoro-1-(pentyloxy)ethyl)-5,6,7,7a-tetrahydro-3aH-pyrano[3,2-d]thiazole-6,7-diol] | 32 ×10⁻⁶ cm/s
4 | CNC1=N[C@@H]2[C@@H](O)[C@H](O)[C@@H]([C@H](Oc3ccccc3)C(F)(F)F)O[C@@H]2S1 [Example 3, (3aR,5S,6S,7R,7aR)-2-(methylamino)-5-((S)-2,2,2-trifluoro-1-phenoxyethyl)-5,6,7,7a-tetrahydro-3aH-pyrano[3,2-d]thiazole-6,7-diol] | 28.3 ×10⁻⁶ cm/s
5 | CNC1=N[C@@H]2[C@@H](O)[C@H](O)[C@@H]([C@@H](OCCCc3ccc(F)cc3)C(F)(F)F)O[C@@H]2S1 [Example 83, (3aR,5S,6S,7R,7aR)-2-(methylamino)-5-((R)-2,2,2-trifluoro-1-(3-(4-fluorophenyl)propoxy)ethyl)-5,6,7,7a-tetrahydro-3aH-pyrano[3,2-d]thiazole-6,7-diol] | 29.7 ×10⁻⁶ cm/s
6 | CN(C)C1=N[C@@H]2[C@@H](O)[C@H](O)[C@@H]([C@@H](OCc3cccc(F)c3F)C(F)(F)F)O[C@@H]2S1 [Example 46, (3aR,5S,6S,7R,7aR)-5-((R)-1-(2,3-difluorobenzyloxy)-2,2,2-trifluoroethyl)-2-(dimethylamino)-5,6,7,7a-tetrahydro-3aH-pyrano[3,2-d]thiazole-6,7-diol] | 34.5 ×10⁻⁶ cm/s
7 | CNC1=N[C@@H]2[C@@H](O)[C@H](O)[C@@H]([C@@H](OCc3ccc(C(F)(F)F)cc3)C(F)(F)F)O[C@@H]2S1 [Example 94, (3aR,5S,6S,7R,7aR)-2-(mcthylamino)-5-((R)-2,2,2-trifluoro-1-(4-(trifluoromethyl)benzyloxy)ethyl)-5,6,7,7a-tetrahydro-3aH-pyrano[3,2-d]thiazole-6,7-diol] | 24.6 ×10⁻⁶ cm/s
8 | CCO[C@@H]([C@H]1O[C@@H]2SC(N(C)C)=N[C@@H]2[C@@H](O)[C@@H]1O)C(F)(F)F [Example 22, (3aR,5S,6S,7R,7aR)-2-(dimethylamino)-5-((S)-1-ethoxy-2,2,2-trifluoroethyl)-5,6,7,7a-tetrahydro-3aH-pyrano[3,2-d]thiazole-6,7-diol] | 27.2 ×10⁻⁶ cm/s
9 | COc1ccccc1CO[C@H]([C@H]1O[C@@H]2SC(N(C)C)=N[C@@H]2[C@@H](O)[C@@H]1O)C(F)(F)F [Example 50, (3aR,5S,6S,7R,7aR)-2-(dimethylamino)-5-((R)-2,2,2-trifluoro-1-(2-methoxybenzyloxy)ethyl)-5,6,7,7a-tetrahydro-3aH-pyrano[3,2-d]thiazole-6,7-diol] | 31.5 ×10⁻⁶ cm/s
10 | COc1ccc(CO[C@@H]([C@H]2O[C@@H]3SC(N(C)C)=N[C@@H]3[C@@H](O)[C@@H]2O)C(F)(F)F)cc1 [Example 53, (3aR,5S,6S,7R,7aR)-2-(dimethylamino)-5-((R)-2,2,2-trifluoro-1-(4-mcthoxybenzyloxy)ethyl)-5,6,7,7a-tetrahydro-3aH-pyrano[3,2-d]thiazole-6,7-diol] | 33 ×10⁻⁶ cm/s
11 | CCCCO[C@H]([C@H]1O[C@@H]2SC(N(C)C)=N[C@@H]2[C@@H](O)[C@@H]1O)C(F)(F)F [Example 26, (3aR,5S,6S,7R,7aR)-5-((R)-1-butoxy-2,2,2-trifluoroethyl)-2-(dimethylamino)-5,6,7,7a-tetrahydro-3aH-pyrano[3,2-d]thiazole-6,7-diol] | 30.8 ×10⁻⁶ cm/s
12 | CCc1cc(CO[C@H]([C@H]2O[C@@H]3SC(N(C)C)=N[C@@H]3[C@@H](O)[C@@H]2O)C(F)(F)F)ccc1OC [Example 59, (3aR,5S,6S,7R,7aR)-2-(dimethylamino)-5-((R)-1-(3-ethyl-4-methoxybenzyloxy)-2,2,2-trifluoroethyl)-5,6,7,7a-tetrahydro-3aH-pyrano[3,2-d]thiazole-6,7-diol] | 29.6 ×10⁻⁶ cm/s
13 | CNC1=N[C@@H]2[C@@H](O)[C@H](O)[C@@H]([C@@H](OCc3ccccc3)C(F)(F)F)O[C@@H]2S1 [Example 84, (3aR,5S,6S,7R,7aR)-5-((R)-1-(benzyloxy)-2,2,2-trifluoroethyl)-2-(methylamino)-5,6,7,7a-tetrahydro-3aH-pyrano[3,2-d]thiazole-6,7-diol] | 27 ×10⁻⁶ cm/s
14 | COc1ccc(CO[C@@H](C)[C@H]2O[C@@H]3SC(N(C)C)=N[C@@H]3[C@@H](O)[C@@H]2O)cc1 [Example 109, (3aR,5S,6S,7R,7aR)-2-(dimethylamino)-5-((S)-1-(4-methoxybenzyloxy)ethyl)-5,6,7,7a-tetrahydro-3aH-pyrano[3,2-d]thiazole-6,7-diol] | 26.3 ×10⁻⁶ cm/s
15 | COc1cccc(CO[C@H]([C@H]2O[C@@H]3SC(N(C)C)=N[C@@H]3[C@@H](O)[C@@H]2O)C(F)(F)F)c1 [Example 51, (3aR,5S,6S,7R,7aR)-2-(dimethylamino)-5-((R)-2,2,2-trifluoro-1-(3-methoxybenzyloxy)ethyl)-5,6,7,7a-tetrahydro-3aH-pyrano[3,2-d]thiazole-6,7-diol] | 30.9 ×10⁻⁶ cm/s
16 | CCCO[C@H]([C@H]1O[C@@H]2SC(N(C)C)=N[C@@H]2[C@@H](O)[C@@H]1O)C(F)(F)F [Example 25, (3aR,5S,6S,7R,7aR)-2-(dimethylamino)-5-((R)-2,2,2-trifluoro-1-propoxyethyl)-5,6,7,7a-tetrahydro-3aH-pyrano[3,2-d]thiazole-6,7-diol] | 29.5 ×10⁻⁶ cm/s
17 | CN(C)C1=N[C@@H]2[C@@H](O)[C@H](O)[C@@H]([C@@H](Oc3ccccc3)C(F)(F)F)O[C@@H]2S1 [Example 107, (3aR,5S,6S,7R,7aR)-2-(dimethylamino)-5-((R)-2,2,2-trifluoro-1-phenoxyethyl)-5,6,7,7a-tetrahydro-3aH-pyrano[3,2-d]thiazole-6,7-diol] | 31.3 ×10⁻⁶ cm/s
18 | CN(C)C1=N[C@@H]2[C@@H](O)[C@H](O)[C@@H]([C@@H](OCc3ccccc3C(F)(F)F)C(F)(F)F)O[C@@H]2S1 [Example 68, (3aR,5S,6S,7R,7aR)-2-(dimethylamino)-5-((R)-2,2,2-trifluoro-1-(2-(trifluoromethyl)benzyloxy)ethyl)-5,6,7,7a-tetrahydro-3aH-pyrano[3,2-d]thiazole-6,7-diol] | 34.1 ×10⁻⁶ cm/s
19 | C=CCOc1ccc(CO[C@H]([C@H]2O[C@@H]3SC(N(C)C)=N[C@@H]3[C@@H](O)[C@@H]2O)C(F)(F)F)cc1 [Example 20, (3aR,5S,6S,7R,7aR)-5-((R)-1-(4-(allyloxy)benzyloxy)-2,2,2-trifluoroethyl)-2-(dimethylamino)-5,6,7,7a-tetrahydro-3aH-pyrano[3,2-d]thiazole-6,7-diol] | 29.8 ×10⁻⁶ cm/s
